According to patent US8992897B2, “Skin lightening compositions” (ELC Management LLC, priority 2010, dated 2015):
Read-outs that look alike come from different tables or passages of the source.

Tests used:
[1] = tested on: tyrosinase mRNA; assay: Tyrosinase mRNA level by RT-PCR in B16F10 cells; settings: B16F10 mouse melanoma cells
[2] = molecular target: T1, tyrosinase (Mus musculus, UniProt P11344); assay: Tyrosinase activity of B16F10 cell extracts with L-DOPA as substrate
T1 sequence (P11344 19-533): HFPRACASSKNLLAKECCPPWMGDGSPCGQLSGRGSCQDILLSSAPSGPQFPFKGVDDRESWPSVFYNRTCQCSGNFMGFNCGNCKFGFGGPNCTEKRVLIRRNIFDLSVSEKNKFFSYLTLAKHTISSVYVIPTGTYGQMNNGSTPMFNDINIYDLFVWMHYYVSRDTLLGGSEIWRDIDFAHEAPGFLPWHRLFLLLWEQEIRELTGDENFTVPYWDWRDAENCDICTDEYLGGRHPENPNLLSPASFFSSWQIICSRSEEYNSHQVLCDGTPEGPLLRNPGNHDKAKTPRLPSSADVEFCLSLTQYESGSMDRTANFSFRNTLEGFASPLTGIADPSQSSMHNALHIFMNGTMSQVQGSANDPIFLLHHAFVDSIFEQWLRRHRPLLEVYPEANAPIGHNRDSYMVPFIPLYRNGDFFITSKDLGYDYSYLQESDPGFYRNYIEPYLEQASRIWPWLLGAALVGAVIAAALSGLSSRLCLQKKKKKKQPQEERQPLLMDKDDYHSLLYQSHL

[3] = tested on: B16F10 melanoma cells; assay: pH change in B16F10 melanoma cells by DAMP accumulation / FITC anti-DNP fluorescence; format: cell-based, mouse
Experimental: The protocol to detect changes in pH followed that of Cheli, Y. et al. B16F10 melanoma cells were seeded in glass bottom dishes and maintained in DMEM medium with 10% FBS. […] Cells were washed with fresh culture medium and incubated for 20 minutes in the presence of 30 μM DAMP ([3-(2,4-dinitroanilino)3′amino-N-methyldipropylamine], a weak base which accumulates in acidic compartments). Cells were fixed in 3% PFA for 20 minutes at room temperature. The glass bottom dishes were washed with PBS, incubated 10 minutes in NH4Cl//PBS at room temperature and permeabilized in PBS with 0.1% Triton-100 for two minutes on ice. The dishes were then incubated with a green reflecting fluoroscein isothiocyanate (FITC)-labeled rabbit anti-dinitrophenyl (DNP) antibody (1/50 PBS plus 1% BSA) for one hours at 37° C. The intensity of fluorescence indicated the accumulation of DAMP. Increased intensity of the fluorescence can be related to lowered pH. (Cheli, Y., Luciani, F., Khaled, M., Beuret, L., Billie, K., Gounon, Pl, Ortonne, J. P., Bertolotto, C., and Ballotti, R. Alpha-MSH and cyclic-AMP elevating agents control melanosome pH through a PKA-independent mechanism. J. Biol. Chem., 284:18699-18706, 2009).
It has been previously shown that forskolin induces an alkalinization of the melanosome milieu.

[4] = tested on: cultured melanocytes; assay: Inhibition of melanogenesis in cultured melanocytes
[5] = tested on: B16F10 melanoma cells; assay: Melanin content of B16F10 melanoma cells (screening for inhibition of melanogenesis)
Experimental: B16F10 melanoma cells were incubated for three days with test compounds at various concentrations. The cells were fixed, dried and solubilized, and the melanin content was determined.

[6] = tested on: mouse tyrosinase; assay: Tyrosinase protein level by Western blot; settings: Western blots, antibodies specific for mouse tyrosinase
[7] = tested on: MITF mRNA; assay: MITF mRNA level by RT-PCR in B16F10 cells; settings: B16F10 mouse melanoma cells
[8] = molecular target: T2, human tyrosinase (Homo sapiens, UniProt P14679); settings: test tube assay, extracts from human melanocytes
T2 sequence (P14679 19-529): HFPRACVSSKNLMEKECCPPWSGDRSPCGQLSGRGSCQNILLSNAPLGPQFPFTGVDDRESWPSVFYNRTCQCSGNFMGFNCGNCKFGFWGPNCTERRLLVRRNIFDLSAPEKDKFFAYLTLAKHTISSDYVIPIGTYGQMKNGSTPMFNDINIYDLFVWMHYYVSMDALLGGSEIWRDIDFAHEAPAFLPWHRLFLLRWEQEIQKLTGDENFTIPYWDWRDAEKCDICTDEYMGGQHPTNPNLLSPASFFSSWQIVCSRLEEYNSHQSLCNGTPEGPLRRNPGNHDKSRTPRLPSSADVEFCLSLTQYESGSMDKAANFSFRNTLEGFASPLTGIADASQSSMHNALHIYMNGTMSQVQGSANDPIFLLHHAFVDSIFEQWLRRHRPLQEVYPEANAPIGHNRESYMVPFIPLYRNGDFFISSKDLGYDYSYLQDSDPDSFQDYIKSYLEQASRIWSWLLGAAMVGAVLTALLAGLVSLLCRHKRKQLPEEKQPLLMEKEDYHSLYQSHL

[9] = tested on: skin; settings: 4% hydroquinone, another study

Compound: 5- or 6-methoxy-2-{[(4-methoxy-3,5-dimethylpyridin-2-yl)methyl]sulfinyl}-1H-benzimidazole [omeprazole]
- tyrosinase mRNA level [1]: does not change
- tyrosinase activity of B16F10 cell extracts [2]: decreases the tyrosinase activity
- lowering the pH of melanoma cells (in words) ([3]; 25 μM and 50 μM, after 4 hours of treatment): effective at lowering the pH
- Average fluorescence per cell ± S.D. ([3]; 4 hour incubation (first experiment), 50 μM): 145.5 ± 14.5
- Average fluorescence per cell ± S.D. ([3]; 4 hour incubation (second experiment), 25 μM): 124.3 ± 2.5
- Average fluorescence per cell ± S.D. ([3]; 4 hour incubation (second experiment), 50 μM): 133.7 ± 13.3
- Average fluorescence per cell ± S.D. ([3]; 24 hour incubation, 50 μM): 139.3 ± 14.4
- Fluorescence intensity / DAMP labeling (in words) ([3]; exposure of cells for 24 hours): increased
- effective concentration to inhibit melanogenesis [4]: 5 to 50 µg/mL
- cytotoxicity ([5]; B16F10 melanoma cells): without cytotoxicity
- inhibition of melanin synthesis ([5]; B16F10 melanoma cells): inhibits melanin synthesis
- reducing melanin in the cells (melanin content) ([5]; B16F10 melanoma cells incubated three days with test compounds at various concentrations): one of the compounds most potent in reducing melanin
- tyrosinase protein level [6]: decreases tyrosinase protein level
- MITF mRNA level [7]: does not change
- concentration required to moderately inhibit human tyrosinase activity [8]: 250 µg/mL

Compound: C=C[C@@]1(C)CC(=O)[C@]2(O)[C@@]3(C)[C@@H](O)CCC(C)(C)[C@@H]3[C@H](O)[C@H](OC(C)=O)[C@@]2(C)O1 [Forskolin]
- Average fluorescence per cell ± S.D. ([3]; 24 hour incubation, 20 μM): 87 ± 15.1

Compound: Cc1nc2c(OCc3ccccc3)cccn2c1CC#N [SCH-28080, 2-methyl-8-(phenylmethoxy) imidazo (1,2a) pyridine-3-acetonitrile]
- inhibition of melanogenesis ([5]; cultured B16F10 mouse melanoma cells (routine screening)): equally as efficient as omeprazole

Compound: Oc1ccc(O)cc1 [hydroquinone]
- lightening factor ([9]; 3 weeks of treatment): 3.2
- lightening factor ([9]; 4 weeks of treatment): 5.0
